Patent US6924301B1, “Composition for treating or preventing arrhythmia” (Shionogi & Co., Ltd., priority 1999, dated 2005)
pIC50: −log10 of the molar value.

What was measured:
cPLA2 = target: T1, cPLA2 (Homo sapiens, UniProt P47712); assay: cPLA2 inhibitory activity; assay type: biochemical; conditions: 1-palmitoyl-2-[14C]-arachidonoyl-sn-glycero-3-phosphocholine liposomes, 15 min at 37° C.
T1 sequence (P47712 1-749): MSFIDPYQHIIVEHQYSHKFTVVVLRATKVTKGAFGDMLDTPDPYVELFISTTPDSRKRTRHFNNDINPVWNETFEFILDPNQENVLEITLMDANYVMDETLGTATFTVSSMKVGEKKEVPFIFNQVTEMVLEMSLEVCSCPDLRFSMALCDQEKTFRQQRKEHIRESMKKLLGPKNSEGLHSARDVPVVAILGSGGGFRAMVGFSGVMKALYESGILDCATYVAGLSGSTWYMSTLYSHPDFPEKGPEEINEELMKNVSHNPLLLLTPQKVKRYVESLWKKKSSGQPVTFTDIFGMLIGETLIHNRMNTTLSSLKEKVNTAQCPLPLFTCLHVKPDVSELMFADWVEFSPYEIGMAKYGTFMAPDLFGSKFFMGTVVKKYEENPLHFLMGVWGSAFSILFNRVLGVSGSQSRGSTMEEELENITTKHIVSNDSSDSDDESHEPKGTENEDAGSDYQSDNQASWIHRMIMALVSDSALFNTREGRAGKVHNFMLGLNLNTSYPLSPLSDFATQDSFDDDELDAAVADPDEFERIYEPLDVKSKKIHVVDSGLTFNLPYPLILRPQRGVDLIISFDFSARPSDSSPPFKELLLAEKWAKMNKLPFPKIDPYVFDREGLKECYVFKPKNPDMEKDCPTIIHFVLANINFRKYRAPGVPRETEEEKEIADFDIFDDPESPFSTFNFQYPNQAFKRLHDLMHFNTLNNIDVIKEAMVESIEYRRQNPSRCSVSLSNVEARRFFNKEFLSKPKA
Protocol: The compounds of the present invention were tested for the cPLA2 inhibitory activity according to the method disclosed in […]. Roberts, […], and J. E. Putnam, J. Biol. Chem., 1991, 266, 5268-5272 as outlined below. […] The reaction mixture includes 50 mM HEPES buffer (pH 7.5), 1 mM calcium chloride, 150 mM sodium chloride, 0.1 mg/ml bovine serum albumin, and 1.7 mM dithiothreitol. To the reaction mixture was added the compound of the present invention and the substrate solution. The reaction was allowed to start by adding an enzyme and continued for 15 min at 37° C. The fatty acids released by the reaction were extracted by the method described in V. P. Dole, and H. Meinertz, J. Biol. Chem., 1960, 235, 2595-2599 and its radiation activity was measured on a liquid scintillation counter. Control was obtained by conducting the experiment in the same manner except that a compound of the present invention was not added.

Wistar male rats = assay: Arrhythmia induced by ischemia-reperfusion (coronary ligation 3 min, 10 min reperfusion) in anesthetized rats; assay type: in vivo, rat; conditions: for ventricular fibrillation / ventricular tachycardia: total duration during 10 min reperfusion, mean±S.D.; for effect on ventricular tachycardia induced by ischemia-reperfusion: summary in words of Tables 11 and 12, vs vehicle
Protocol: The utility of the present invention for treating or preventing arrhythmia was confirmed in a manner similar to that described in Circulation Research 56: 545-548, 1984.
Wistar male rats are used as experimental animals. Anesthesia of animal is induced by administration of 30 mg/kg to 60 mg/kg, preferably 40 mg/kg of pentobarbital sodium (preferably intraperitoneal injection). A catheter for the administration of drugs is placed in the jugular vein. Electrocardiogram (ECG) is recorded from lead II during cardiac ischemia and reperfusion. A thoracotomy is performed under artificial ventilation. Left coronary artery is ligated with silicon tube for 3 to 5 min, preferably 3 min. Reperfusion is performed by cutting snare. Total duration of ventricular tachycardia and ventricular fibrillation during 5 to 30 min, preferably 10 min reperfusion are evaluated. Test compounds are dissolved in solvent containing 10% DMSO, 10% ethanol, 30% polyethylene glycol and 50% distilled water and sodium hydrocarbonate is added to the solution to adjust final concentration to 0 to 1%, preferably 0.5%. Drugs are administrated intravenously in bolus at 15 to 60 min, preferably 30 min before reperfusion followed by 30 to 40 min, preferably 40 min infusion.
Wistar male rats (weight 250-350 g) were used. The compound (C-4) (the compound M-17 described in WO98/33797) and the compound (B-1) shown below were dissolved in solvent containing DMSO:ethanol:polyethylene glycol 300:1% aqueous sodium hydrogen carbonate solution=10:10:30:50 (volume ratio). Anesthesia was induced with intraperitoneal injection of 40 mg/kg of pentobarbital sodium. A catheter for the administration of drugs was placed in the jugular vein. Electrocardiogram (ECG) was recorded from lead II during cardiac ischemia and 10 min reperfusion. Drugs were administrated intravenously in bolus at 30 min before reperfusion followed by 40 min infusion. Solvent containing DMSO:ethanol:polyethylene glycol 300:1% aqueous sodium hydrogen carbonate solution=10:10:30:50 (volume ratio) was administrated as vehicle in a administration experiment. A thoracotomy was performed under artificial ventilation. Left coronary artery was ligated with silicon tube for 3 min. Reperfusion was performed by cutting snare. Total duration of ventricular tachycardia (VT) and ventricular fibrillation (VF) during 10 min reperfusion were evaluated.
Data are expressed as mean±S.D. Statistical analysis was performed with Welch's t-test. A value of P<0.05 was considered significant. Compound (C-4) [drawing 73]

[1] = Bolus (i.v.) + Infusion (i.v.) 0.001 mg/kg + 0.001 mg/kg/hr
[2] = Bolus (i.v.) + Infusion (i.v.) 0.01 mg/kg + 0.01 mg/kg/hr
[3] = Bolus (i.v.) + Infusion (i.v.) 0.1 mg/kg + 0.1 mg/kg/hr

SMILES	pIC50 (cPLA2)	ventricular fibrillation (Wistar male rats; [1]) [s]	ventricular tachycardia (Wistar male rats; [1]) [s]	ventricular fibrillation (Wistar male rats; [2]) [s]	ventricular tachycardia (Wistar male rats; [2]) [s]	ventricular fibrillation (Wistar male rats; [3]) [s]	ventricular tachycardia (Wistar male rats; [3]) [s]	effect on ventricular tachycardia induced by ischemia-reperfusion (Wistar male rats)	melting point [°C]
O=C1NC(=O)/C(=C/c2ccc(C(=O)NC[C@@H]3C[C@@H](SC(c4ccccc4)(c4ccccc4)c4ccccc4)CN3C(=O)c3ccccc3C(=O)c3ccc(F)cc3F)cc2)S1 [Compound B-1]	8.43	44.5 ± 133.3	54.8 ± 100.9	56.5 ± 169.5	31.1 ± 62.3	0.0 ± 0.0	0.4 ± 0.9	significantly reduced	158 to 160
CC(C)CN(C(c1ccccc1)c1ccccc1)[C@@H]1C[C@@H](CNC(=O)c2ccc(/C=C3\SC(=O)NC3=O)cc2)N(C(=O)c2ccccc2C(=O)c2ccc(F)cc2F)C1 [Compound C-4]		15.1 ± 41.2	28.7 ± 50.3	1.6 ± 2.9	7.6 ± 9.4	0.2 ± 0.4	5.1 ± 9.3	significantly reduced	
